The results in this text go back to article PMC10301333, “The C-Terminus of Panusin, a Lobster β-Defensin, Is Crucial for Optimal Antimicrobial Activity and Serum Stability” (Pharmaceutics, 2023).

The test system of one data set is horse red blood cells. The experiment in a line: Hemolytic activity (hemoglobin release). On the procedure: Both peptides were tested for hemolytic activity on horse red blood cells (RBCs), as described earlier. Briefly, fresh RBCs in PBS (pH 7.4) were first centrifuged 3 × 1500× g for 5 min, then diluted 1:10 with PBS to yield an RBC concentration of ~5 × 10^8 cells/mL. RBCs were then incubated for 1 h at 37 °C with 2-fold serial dilutions of PaD or Ct_PaD covering a 0.24–250 μM concentration range. Next, 0.1% TritonX100 and PBS were used as positive and negative controls, respectively. After incubation, samples were centrifuged at 1500× g for 10 min at room temperature and the supernatant (60 μL) was transferred to a flat-bottomed 96-well polypropylene microplate (Greiner, Frickenhausen, Germany). Hemoglobin release was then measured as OD at 540 nm in a VICTOR3 microplate reader (Perkin Elmer, Waltham, MA, USA). Percent hemolysis was calculated as indicated below (Equation (1)).

The nature of another data set: MTT cytotoxicity assay. The settings on record: human; MRC-5 cells, 4 h peptide incubation, 1.56–200 μM, MTT, OD 570 nm; average of three independent replicates; read-out: MRC-5 cytotoxicity (IC50). Format: cell-based. How it is done:
MRC-5 cells were cultured in Eagle’s minimum essential medium (MEMα), supplemented with 10% (v/v) fetal bovine serum (FBS) and a 1% penicillin (100 IU/mL)/streptomycin (100 μg/mL) solution, and maintained at 37 °C in a humidified atmosphere with 5% CO2. After cells were grown, they were seeded into 96-well plates at 3 × 10^4 cells/well and cultured overnight to adhere to the plate. Subsequently, adherent cells were incubated for 4 h under standard conditions (5% CO2, 37 °C) with 2-fold serial dilutions of each peptide in a 1.56–200 μM concentration range. Following incubation, the peptide-containing medium was replaced with MEM supplemented with FBS and 3-(4,5-dimethylthiazol-2-yl)-2,5 diphenyltetrazolium bromide (MTT) at 0.4 mg/mL, and the cells were further incubated for 120 min. Formazan crystals in live cells were detected after disruption with 200 μL of DMSO by OD measurement at 570 nm in a Tecan microplate reader. […] Data are the average of three independent replicates.
(In general: Tetrazolium dyes change colour on reduction, which living cells bring about.)

Data set [1] is described as follows: Analytical RP-HPLC retention time as measure of hydrophobic character. Format: physicochemical. As to conditions: chromatographic, Luna C18 4.6 × 50 mm, 3 µm; 10 to 50 linear gradient of MeCN (0.036% TFA) into H2O (0.045% TFA) over 15 min, 1 mL/min, UV 220 nm; used as indicator of hydrophobic character. How it is done:
Analytical RP-HPLC was performed on an LC-2010 instrument (Shimadzu, Kyoto, Japan) using a Luna C18 column (4.6 × 50 mm, 3 µm; Phenomenex, Torrance, CA, USA), eluted with linear gradients of solvent B (0.036% TFA in MeCN) into solvent A (0.045% TFA in H2O) over 15 min at a 1 mL/min flow rate, with UV detection at 220 nm.
The HPLC retention times of PaD and Ct_PaD reflect some differences in hydrophobic character. […] Such differences in hydrophobicity might influence both antimicrobial and cytotoxic activity, which were therefore assessed next.
Supplementary Materials: The C-terminus of Panusin, a Lobster β-defensin, Is Crucial for Optimal Antimicrobial
Activity and Serum Stability
Roberto Bello-Madruga, Javier Valle, M. Ángeles Jiménez, Marc Torrent, Vivian Montero-Alejoand David Andreu
1. Synthetic Peptide Characterization
Table S1. Peptide Analytical Data.
1 Theoretical Experimental HPLC Retention Purity
Peptide Mass (Da) Mass (Da)2 Time (min)3 (HPLC, %)4
1 All peptides are C-terminal carboxamides; 2 Determined by LC-MS, 3 Elution was carried out with a 10 to 50 linear gradient over 15 min; 4 Determined by analytical HPLC.
Figure S1. RP-HPLC elution profile of purified peptides. […]

A further data set concerns Acinetobacter baumannii. As to conditions: A. baumannii ATCC 15308. On the procedure: (§1) Antimicrobial activities of both PaD and Ct_PaD were determined in a modified microdilution assay as described previously for other β-defensins such as peptides. The assay was performed in sterile polypropylene 96-well plates that prevent peptide binding (Greiner, Frickenhausen, Germany). From a bacterial isolate, a single colony was seeded in Mueller Hinton Broth (MHB, Condalab, Torrejón de Ardoz, Spain) and allowed to grow at 37 °C in an incubator with orbital shaking at 250 rpm overnight. Subsequently, a new bacterial culture was seeded from the overnight culture and allowed to grow to an OD of 0.5 at 600 nm. The bacterial suspension was diluted to a final concentration of 5 × 10^5 CFU (colony formation unit)/mL in sterile 10 mM phosphate buffer (PB: 2.46 mM NaH2PO4, 7.5 mM Na2HPO4, pH 7.4), used as the working culture. Next, 50 μL of 2-fold serial dilutions of each peptide in PB were placed on the plates to provide a final 0.097–100 µM concentration range after which 50 μL of working culture was applied to each well. The plate was first incubated for 2 h at 37 °C, then 100 μL of MHB 2× was added to each well and was incubated at 37 °C overnight with shaking. The growth of bacteria was measured by the optical density at 600 nm in a microplate reader (Tecan, Männedorf, Switzerland). The minimum inhibitory concentration (MIC) was defined as the minimum peptide concentration in which the microorganism is unable to grow. The results are the average of three independent studies. […] MBC was defined for each peptide as the lowest concentration with no bacterial growth detected.

The next data set concerns Enterococcus faecium. The settings on record: E. faecium ATCC 19434. How it is done: as §1
A further data set relates to Escherichia coli. The settings on record: E. coli BW25113. How it is done: as §1
The next data set concerns Micrococcus luteus. The settings on record: M. luteus ATCC 15,307. How it is done:
as §1

Another data set relates to Pseudomonas aeruginosa. The settings on record: P. aeruginosa ATCC 15692. How it is done: as §1
The next data set concerns Staphylococcus aureus. The settings on record: S. aureus ATCC 12600. On the procedure:
as §1

The mark [2] stands for this setting: 10 mM phosphate buffer pH 7.4, 2 h at 37 °C, then MHB overnight, OD 600 nm, average of three independent studies.
The mark [3] stands for this setting: plated, 37 °C, 24 h, lowest concentration with no bacterial growth.

≈ marks a conversion by molar mass, not a printed value. Bridge positions count the residues as written; N and C are the ends. Peptide text beside a SMILES is read from it.

As to `CC(C)C[C@@H]1NC(=O)[C@H](CCCNC(=N)N)NC(=O)[C@H](CC(N)=O)NC(=O)CNC(=O)[C@H](Cc2ccc(O)cc2)NC(=O)[C@@H]2CCCN2C(=O)[C@@H](NC(=O)[C@@H](N)Cc2ccc(O)cc2)CSSC[C@@H](C(=O)N[C@@H](CCCNC(=N)N)C(=O)N[C@@H](CCCNC(=N)N)C(=O)N[C@@H](CO)C(=O)N[C@@H](Cc2ccc(O)cc2)C(N)=O)NC(=O)[C@@H]2CSSC[C@H](NC(=O)[C@H](Cc3ccccc3)NC(=O)[C@H](Cc3ccc(O)cc3)NC(=O)[C@H](CC(N)=O)NC1=O)C(=O)N1CCC[C@H]1C(=O)N[C@@H](CC(C)C)C(=O)NCC(=O)N[C@@H](CCCNC(=N)N)C(=O)N[C@@H]([C@@H](C)O)C(=O)N2` [Ct_PaD] (H-YCPYGNRLNYFCPLGRTCCRRSY-NH2; disulfide 2-19, 12-18; N-terminus assumed), the “Hemolytic activity (result in words)” value in the data set on horse red blood cells (horse red blood cell lysis, tested up to 250 μM, hemoglobin release at 540 nm) is recorded as “absence of hemolytic activity”. For the same compound, the IC50 at 4 h in “MTT cytotoxicity assay” is 175 ± 1.5 µM. The “HPLC Retention Time” value in data set [1] is reported as 6.65 min.
As for `CC[C@H](C)[C@H](NC(=O)[C@H](CCCCN)NC(=O)[C@H](CCC(=O)O)NC(=O)[C@H](CCCCN)NC(=O)[C@H](CO)NC(=O)[C@H](CCCCN)NC(=O)[C@H](CCCNC(=N)N)NC(=O)[C@H](Cc1ccccc1)NC(=O)[C@H](Cc1ccccc1)NC(=O)[C@H](CC(=O)O)NC(=O)CNC(=O)[C@H](CC(C)C)NC(=O)[C@@H](N)CC(C)C)C(=O)NCC(=O)N[C@@H](CCCCN)C(=O)N[C@@H](CCC(=O)O)C(=O)N[C@@H](Cc1ccccc1)C(=O)N[C@@H](CCCCN)C(=O)N[C@@H](CCCNC(=N)N)C(=O)N[C@H](C(=O)N[C@H](C(=O)N[C@@H](CCC(N)=O)C(=O)N[C@@H](CCCNC(=N)N)C(=O)N[C@H](C(=O)N[C@@H](CCCCN)C(=O)N[C@@H](CC(=O)O)C(=O)N[C@@H](Cc1ccccc1)C(=O)N[C@@H](CC(C)C)C(=O)N[C@@H](CCCNC(=N)N)C(=O)N[C@@H](CC(N)=O)C(=O)N[C@@H](CC(C)C)C(=O)N[C@H](C(=O)N1CCC[C@H]1C(=O)N[C@@H](CCCNC(=N)N)C(=O)N[C@H](C(=O)N[C@@H](CCC(=O)O)C(=O)N[C@@H](CO)C(=O)O)[C@@H](C)O)C(C)C)[C@@H](C)CC)C(C)C)[C@@H](C)CC` [LL-37, reference compound], the MIC stood at 6.3 µM (≈ 28.3 µg/mL) with Acinetobacter baumannii (setting [2]); 1.6 µM (≈ 7.19 µg/mL) against Enterococcus faecium (setting [2]); 1.6 µM (≈ 7.19 µg/mL) in the data set on Escherichia coli (5 × 10^5 CFU/mL in 10 mM phosphate buffer pH 7.4, 2 h at 37 °C, then MHB overnight, OD 600 nm, average of three independent studies); 1.6 µM (≈ 7.19 µg/mL) with Micrococcus luteus (setting [2]); 1.6 µM (≈ 7.19 µg/mL) against Pseudomonas aeruginosa (setting [2]); 25 µM (≈ 112 µg/mL) against Staphylococcus aureus (setting [2]). For the same compound, the MBC with Acinetobacter baumannii (setting [3]) is 6.3 µM (≈ 28.3 µg/mL); in the data set with Enterococcus faecium (setting [3]), 3.1 µM (≈ 13.9 µg/mL); in the data set on Escherichia coli (50 μL of wells seeded into Petri plates, 37 °C, 24 h, lowest concentration with no bacterial growth), 3.1 µM (≈ 13.9 µg/mL); with Micrococcus luteus (setting [3]), 3.1 µM (≈ 13.9 µg/mL); with Pseudomonas aeruginosa (setting [3]), 1.6 µM (≈ 7.19 µg/mL); with Staphylococcus aureus (setting [3]) it was 25 µM (≈ 112 µg/mL). Moreover, the “Hemolysis % (250 µM peptide)” value in the data set with horse red blood cells (horse RBCs ~5 × 10^8 cells/mL in PBS pH 7.4, 1 h, 37 °C, 250 µM peptide, OD 540 nm, vs 0.1% TritonX100, average of three independent replicates) is recorded as 17.5 ± 0.3%.

As usually defined, the IC50 is the midpoint of a concentration-inhibition curve. What is called MIC is the lowest concentration that inhibits growth of the organism. A low value points to greater potency. The MBC is the smallest concentration meeting the test's criterion for killing. Read a high MBC as weaker bactericidal potency.
